Measurements from PubChem BioAssay AID1495 (Sanford-Burnham Center for Chemical Genomics, 2009).

Molecular target: Chaperone protein DnaK (Escherichia coli) (UniProt C3TRK2)
Assay: E. coli DnaK binders, calorimetric Kd – biophysical, isothermal titration calorimetry, beta-domain, full-length DnaK, orthogonal assay for DnaK modulator project, SAR follow-up (AID 1495)
Conditions: purified DnaK, isothermal titration calorimetry binding
[1] = measured here: Kd to DnaK substrate-binding domain
[2] = measured here: substrate peptide Kd, compound-saturated DnaK

Structure (SMILES) | Kd [1] [µM] | Kd [2] [µM] | Kd (measured here: ATP Kd, compound-saturated DnaK) [µM]
Cc1ccc(C(=O)NCc2ccc(F)cc2)o1 | 47.6 |  | 
Cc1ccc(C(=O)NCc2ccc(Cl)cc2)o1 | 19.3 |  | 
O=C(c1cccs1)N1CCN(CCO)CC1 |  | 7.9 | 
O=C(NCc1ccccc1O)c1cccs1 |  | 1.2 | 
O=C(NCc1ccccc1Br)c1cccs1 | 14.3 |  | 
Cc1ccc(CNC(=O)c2ccc([N+](=O)[O-])o2)cc1 | 25 |  | 
CC(Cc1ccc(F)cc1)NC(=O)c1cccs1 (stereo not given) | 13.7 | 0.2 | 
O=C(NCc1cccc2ccsc12)c1cccs1 |  |  | 2.5
O=C(NCc1ccc(Cl)c(Cl)c1)c1cccs1 |  | 0.6 | 
O=C(Nc1ncc2ccccc2n1)c1cccs1 | 1.5 |  | 
O=C(NCc1cccc2ccccc12)c1cccs1 | 1 |  | 
O=C(NCc1ccccc1F)c1cccs1 | 64.1 |  | 
O=C(Nc1ccc2[nH]ccc2c1)c1cccs1 | 4.9 | 2.2 | 
